pIC50: −log10 of the molar value.
Experiments:
human CB1 receptor [1] = target: T1, human CB1 receptor (Homo sapiens, UniProt P21554); assay: bioSensAll GAPL-Gi2 BRET biosensor assay in HEK293 cells transfected with hCB1; test compound added before EC75-80 of agonist CP55,940 (0.1 nM); assay type: cell-based; settings: vs CP55,940 0.1 nM (EC75-80), read-out: CB1 wt Gi2 IC50
T1 construct: expressed in transfected cells; host or cells: HEK293
Method in brief: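 Test compounds at 12 doses up to 600 nM preceded a 0.1 nM CP55,940 challenge in hCB1/GAPL-Gi2 HEK293 cells. After overnight 37° C incubation, methoxy e-coelenterazine (2 µM final) was added and the 515/400 nm BRET ratio normalized to positive and negative controls.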

human CB1 receptor [2] = target: T1, human CB1 receptor; assay: bioSensAll β-arrestin2 plasma membrane translocation (+GRK2) BRET biosensor assay in HEK293 cells transfected with hCB1; test compound added before EC75-80 of agonist CP55,940 (100 nM); assay type: cell-based; settings: βArrestin2 (+GRK2) BRET biosensor, vs CP55,940 100 nM (EC75-80), read-out: CB1 wt βarr2 IC50
Method in brief: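 HEK293 cells co-transfected with hCB1 and β-arrestin2 PM-translocation BRET biosensor (+GRK2); 48 h post-transfection in HBSS, test compound (0–600 nM, 12 points) added 3–5 min before CP55,940 at 100 nM (EC75-80). Overnight incubation at 37 °C; BRET (515/400 nm) read after 2 µM e-coelenterazine Prolume Purple, standardized to controls.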

T1 sequence (P21554 whole entry): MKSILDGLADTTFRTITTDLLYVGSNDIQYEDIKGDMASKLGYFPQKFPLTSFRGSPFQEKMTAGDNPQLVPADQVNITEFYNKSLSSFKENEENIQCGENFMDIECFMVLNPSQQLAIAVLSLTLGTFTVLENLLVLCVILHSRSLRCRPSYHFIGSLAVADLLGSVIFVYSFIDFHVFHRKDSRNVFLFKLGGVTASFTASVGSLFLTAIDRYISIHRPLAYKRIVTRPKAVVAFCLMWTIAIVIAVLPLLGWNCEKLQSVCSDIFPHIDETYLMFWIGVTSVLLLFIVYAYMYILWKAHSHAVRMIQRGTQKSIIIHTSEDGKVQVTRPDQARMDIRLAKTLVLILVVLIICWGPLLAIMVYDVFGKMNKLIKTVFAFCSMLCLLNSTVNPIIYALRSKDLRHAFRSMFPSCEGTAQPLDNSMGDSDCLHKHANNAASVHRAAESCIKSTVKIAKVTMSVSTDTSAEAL

Row | SMILES | pIC50 (human CB1 receptor [1]) | pIC50 (human CB1 receptor [2])
1 | CCNC1(C(N)=O)CCN(c2nc(Cl)nc3c2nc(-c2ccccc2Cl)n3-c2ccc(Cl)cc2)CC1 [Compound 144, 1-(2-chloro-8-(2-chlorophenyl)-9-(4-chlorophenyl)-9H-purin-6-yl)-4-(ethylamino)piperidine-4-carboxamide] | 8.87 | 8.21
2 | CCNC1(C(N)=O)CCN(c2nc(NC(C)=O)nc3c2nc(-c2ccccc2Cl)n3-c2ccc(Cl)cc2)CC1 [Compound 145] | 9.01 | 8.52
3 | CCNC1(C(N)=O)CCN(c2nc(C#N)nc3c2nc(-c2ccccc2Cl)n3-c2ccc(Cl)cc2)CC1 [Compound 146, 1-(8-(2-chlorophenyl)-9-(4-chlorophenyl)-2-cyano-9H-purin-6-yl)-4-(ethylamino)piperidine-4-carboxamide] | 9.14 | 8.79
4 | CCNC1(C(N)=O)CCN(c2nc(C(N)=O)nc3c2nc(-c2ccccc2Cl)n3-c2ccc(Cl)cc2)CC1 [Compound 147, 6-(4-carbamoyl-4-(ethylamino)piperidin-1-yl)-8-(2-chlorophenyl)-9-(4-chlorophenyl)-9H-purine-2-carboxamide] | 8.39 | 7.05
5 | CCNC1(C(N)=O)CCN(c2nc(N(C)CCO)nc3c2nc(-c2ccccc2Cl)n3-c2ccc(Cl)cc2)CC1 [Compound 148] | 9.00 | 8.83
6 | CCNC1(C(N)=O)CCN(c2nc(N)nc3c2nc(-c2ccccc2Cl)n3-c2ccc(Cl)cc2)CC1 [Compound 149] | 8.05 | < 5.30
7 | CCNC1(C(N)=O)CCN(c2nc(N3CCCCC3)nc3c2nc(-c2ccccc2Cl)n3-c2ccc(Cl)cc2)CC1 [Compound 150] | 8.57 | 8.09
8 | CCNC1(C(N)=O)CCN(c2nc(NCc3ccccc3)nc3c2nc(-c2ccccc2Cl)n3-c2ccc(Cl)cc2)CC1 [Compound 151] | 8.35 | 7.89
9 | CCNC1(C(N)=O)CCN(c2nc(-n3ccnc3)nc3c2nc(-c2ccccc2Cl)n3-c2ccc(Cl)cc2)CC1 [Compound 152] | 9.15 | 8.92
10 | CCNC1(C(N)=O)CCN(c2nc(N3CCC(CO)C3)nc3c2nc(-c2ccccc2Cl)n3-c2ccc(Cl)cc2)CC1 (stereo not drawn) [Compound 153] | 9.30 | 8.89
11 | NC(=O)C1CCN(c2nc(N3CCC[C@H]3CO)nc3c2nc(-c2ccccc2Cl)n3-c2ccc(Cl)cc2)CC1 [Compound 154] | 9.09 | 8.14
12 | CN(CCO)c1nc(N2CCC(C(N)=O)CC2)c2nc(-c3ccccc3Cl)n(-c3ccc(Cl)cc3)c2n1 [Compound 155] | 9.00 | 7.83
13 | CNCCOc1nc(N2CCC(C(N)=O)CC2)c2nc(-c3ccccc3Cl)n(-c3ccc(Cl)cc3)c2n1 [Compound 156] | 7.26 | < 5.30
14 | CN(CCO)c1nc(N2CCN(C(N)=O)CC2)c2nc(-c3ccccc3Cl)n(-c3ccc(Cl)cc3)c2n1 [Compound 157] | 9.03 | 8.22
15 | CN(CCO)c1nc(N2CCC(C)(C(N)=O)CC2)c2nc(-c3ccccc3Cl)n(-c3ccc(Cl)cc3)c2n1 [Compound 158, 1-[8-(2-chlorophenyl)-9-(4-chlorophenyl)-2-((2-hydroxyethyl)(methyl)amino)-purin-6-yl]-4-methyl-piperidine-4-carboxamide] | 9.26 | 9.03
16 | CC1(C(N)=O)CCN(c2nc(OC[C@@H]3CCCN3)nc3c2nc(-c2ccccc2Cl)n3-c2ccc(Cl)cc2)CC1 [Compound 160, 1-[8-(2-chlorophenyl)-9-(4-chlorophenyl)-2-((2S)-pyrrolidinemethoxy)-purin-6-yl]-4-methyl-piperidine-4-carboxamide] | 9.06 | 7.66
17 | CN(CCO)c1nc(N2CCC(C(F)(F)F)CC2)c2nc(-c3ccccc3Cl)n(-c3ccc(Cl)cc3)c2n1 [Compound 161, 1-[[8-(2-chlorophenyl)-9-(4-chlorophenyl)-6-[4-(trifluoromethyl)-1-piperidyl]purin-2-yl]-methyl-amino]-ethan-2-ol] | 9.02 | 8.82
18 | OC[C@@H]1CCCN1c1nc(N2CCC(C(F)(F)F)CC2)c2nc(-c3ccccc3Cl)n(-c3ccc(Cl)cc3)c2n1 [Compound 162, [(2S)-1-[8-(2-chlorophenyl)-9-(4-chlorophenyl)-6-[4-(trifluoromethyl)-1-piperidyl]purin-2-yl]pyrrolidin-2-yl]methanol] | 8.89 | 8.74
19 | OC[C@@H]1CCCN1c1nc(-c2ccc(C(F)(F)F)nc2)c2nc(-c3ccccc3Cl)n(-c3ccc(Cl)cc3)c2n1 [Compound 163] | 9.31 | 8.56
20 | O=S1(=O)CCC(Nc2nc(-n3ccnc3)nc3c2nc(-c2ccccc2Cl)n3-c2ccc(Cl)cc2)CC1 [Compound 164] | 8.78 | 7.64
21 | CN(CCO)c1nc(-c2ccc(C(F)(F)F)nc2)c2nc(-c3ccccc3Cl)n(-c3ccc(Cl)cc3)c2n1 [Compound 165] | 9.38 | 8.69
22 | O=S1(=O)CCC(Nc2nc(N3CCC[C@H]3CO)nc3c2nc(-c2ccccc2Cl)n3-c2ccc(Cl)cc2)CC1 [Compound 166] | 9.51 | 8.85
23 | CN(CCO)c1nc(NC2CCS(=O)(=O)CC2)c2nc(-c3ccccc3Cl)n(-c3ccc(Cl)cc3)c2n1 [Compound 167] | 9.38 | 8.36
24 | CN1CCN(c2nc(N(C)CCO)nc3c2nc(-c2ccccc2Cl)n3-c2ccc(Cl)cc2)CC1 [Compound 168] | 8.71 | 7.92

Row | SMILES | pIC50 (human CB1 receptor [1]) | pIC50 (human CB1 receptor [2])
25 | OC[C@@H]1CN(c2nc(N3CCC[C@H]3CO)nc3c2nc(-c2ccccc2Cl)n3-c2ccc(Cl)cc2)CCO1 [Compound 169] | 9.27 | 8.69
26 | CN(CCO)c1nc(N2CCO[C@H](CO)C2)c2nc(-c3ccccc3Cl)n(-c3ccc(Cl)cc3)c2n1 [Compound 170] | 9.22 | 8.46
27 | COC(=O)N1CCN(c2nc(N(C)CCO)nc3c2nc(-c2ccccc2Cl)n3-c2ccc(Cl)cc2)CC1 [Compound 173] | 9.38 | 8.82
28 | CN(CCO)c1nc(NC2CN(C(N)=O)C2)c2nc(-c3ccccc3Cl)n(-c3ccc(Cl)cc3)c2n1 [Compound 176] | 7.81 | < 5.30
29 | CCOC1(C(N)=O)CCN(c2nc(N3CCC[C@H]3CO)nc3c2nc(-c2ccccc2Cl)n3-c2ccc(Cl)cc2)CC1 [Compound 177] | 9.36 | 8.73
30 | CN(CCO)c1nc(NC2CCOCC2)c2nc(-c3ccccc3Cl)n(-c3ccc(Cl)cc3)c2n1 [Compound 178] | 9.26 | 8.39
31 | CN(CCO)c1nc(NC2CN(C(=O)C(F)(F)F)C2)c2nc(-c3ccccc3Cl)n(-c3ccc(Cl)cc3)c2n1 [Compound 179] | 9.61 | 8.72
32 | CN(CCO)c1nc(N2CCC(C)(O)CC2)c2nc(-c3ccccc3Cl)n(-c3ccc(Cl)cc3)c2n1 [Compound 181] | 9.74 | 9.23
33 | CCOC1(C(N)=O)CCN(c2nc(N(C)CCO)nc3c2nc(-c2ccccc2Cl)n3-c2ccc(Cl)cc2)CC1 [Compound 182] | 9.76 | 9.18
34 | CN(CCO)c1nc(N2CCOCC2)c2nc(-c3ccccc3Cl)n(-c3ccc(Cl)cc3)c2n1 [Compound 183] | 9.78 | 9.11
35 | CN(CCO)c1nc(N2CCC(F)(F)CC2)c2nc(-c3ccccc3Cl)n(-c3ccc(Cl)cc3)c2n1 [Compound 184] | 9.62 | 9.05
36 | CN(CCO)c1nc(N2CCC3(CCNC3=O)CC2)c2nc(-c3ccccc3Cl)n(-c3ccc(Cl)cc3)c2n1 [Compound 186] | 9.39 | 8.31
37 | CN(CCO)C(=O)C1CN(c2nc(N(C)CCO)nc3c2nc(-c2ccccc2Cl)n3-c2ccc(Cl)cc2)C1 [Compound 187] | 8.40 | 7.39
38 | CN(CCO)c1nc(N2CC3(COC3)C2)c2nc(-c3ccccc3Cl)n(-c3ccc(Cl)cc3)c2n1 [Compound 188] | 9.51 | 8.74
39 | CC(C)Oc1nc(N(C)CCO)nc2c1nc(-c1ccccc1Cl)n2-c1ccc(Cl)cc1 [Compound 189] | 9.38 | 8.87
40 | CN(CCO)c1nc(N2CCC3(CC2)NC(=O)NC3=O)c2nc(-c3ccccc3Cl)n(-c3ccc(Cl)cc3)c2n1 [Compound 190] | 8.58 | 7.63
41 | CN(CCO)c1nc(N2CCC3(CCOC3)CC2)c2nc(-c3ccccc3Cl)n(-c3ccc(Cl)cc3)c2n1 [Compound 191] | 9.38 | 9.20
42 | CN(CCO)c1nc(N(C)C2CCOC2)c2nc(-c3ccccc3Cl)n(-c3ccc(Cl)cc3)c2n1 (stereo not drawn) [Compound 197] | 9.79 | 8.92
43 | CC(C)(O)COc1nc(N2CCC(C(N)=O)CC2)c2nc(-c3ccccc3Cl)n(-c3ccc(Cl)cc3)c2n1 [Compound 198] | 8.11 | 7.50
44 | CC(C)(O)COc1nc(N2CCC(C)(O)CC2)c2nc(-c3ccccc3Cl)n(-c3ccc(Cl)cc3)c2n1 [Compound 199] | 9.14 | 8.49
45 | CN(CCO)c1nc(N(C)CCO)c2nc(-c3ccccc3Cl)n(-c3ccc(Cl)cc3)c2n1 [Compound 200] | 8.76 | 7.60
46 | CC(C)(O)COc1nc(N2C[C@H]3C[C@@H]2CO3)c2nc(-c3ccccc3Cl)n(-c3ccc(Cl)cc3)c2n1 [Compound 203] | 8.86 | 8.19
47 | CC(C)(O)COc1nc(N2C[C@@H]3C[C@H]2CO3)c2nc(-c3ccccc3Cl)n(-c3ccc(Cl)cc3)c2n1 [Compound 204] | 8.40 | 7.78
48 | CC(C)Oc1nc(OC(C)C)c2nc(-c3ccccc3Cl)n(-c3ccc(Cl)cc3)c2n1 [Compound 205] | 8.22 | 7.26
